Data reported in US20260035367A1 (Celgene Corporation, priority 2021, published 2026).
Read-outs that look alike come from different tables or passages of the source.

Assays:
[1] = molecular target: T1, Recombinant human PKC-theta (His-tagged 362-706) (Homo sapiens, UniProt Q04759); assay: PKC-theta inhibition assay (HTRF KinEASE kit); assay type: biochemical; conditions: ATP 6.5 μM, STK substrate 525 nM
T1 construct: Recombinant human PKC-theta (His-tagged 362-706); His
Procedure, shortened: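 IC50 values were from 4-parameter logistic fits of percent inhibition, based on acceptor/donor HTRF ratios over 10 semi-log compound doses. Kinase reactions, started with substrate plus ATP, ran 30 min at 25 °C in buffer supplemented with 10 mM MgCl2, 1 mM DTT and 0.1% Tween 20; detection lasted 2 h.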

[2] = system: IL-2 secretion by human effector memory T cells (TEM); assay: Effector memory T cells IL-2 release assay (CD3/CD28 stimulation, HTRF IL-2 detection); assay type: cell-based; conditions: Homo sapiens, T-cell, 24 h
Procedure, shortened: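 Human effector memory T cells from healthy-donor buffy coats were exposed in triplicate to ten semi-log doses of compound in 0.1% DMSO. The cells were stimulated and incubated 24 h at 37 °C. Secreted IL-2 in the supernatant was measured by HTRF.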

[3] = molecular target: T2, Recombinant human PKC-delta (His-tagged 345-676) (Homo sapiens, UniProt Q05655); assay: PKC-delta inhibition assay (HTRF KinEASE kit); assay type: biochemical; conditions: ratio, PKC-theta vs PKC-delta HTRF; for PKC-theta/PKC-delta selectivity (binned): binned A to G
T2 construct: PKC-delta (His-tagged 345-676); His
Experimental: PKC-theta and PKC-delta biochemical activities were measured using the PKC-theta HTRF KinEASEkit kit, according to manufacturer's instructions (Cisbio, catalogue number 61ST1PEJ). Briefly, the kinase buffer component of the kit was supplemented with 10 mM MgCl2, 1 mM DTT and 0.1% Tween 20. […] The streptavidin_XL665 and STK antibody-cryptate detection reagents were mixed according to the manufacturer's instructions. Test compounds were diluted in DMSO in a series of 10 semi-log step doses; 10 nL of each compound dose were dispensed in 384 well plates. […] The reaction was started by addition of the substrate and ATP and incubated at 25° C. for 30 minutes or 20 minutes for the PKC-theta and PKC-delta assays, respectively. The detection reagents were added, and the plate was incubated in the dark for 2 hours. […] The ratio of acceptor and donor emission signals was calculated for each well.

[4] = binned A to H, read-out: PKC-theta HTRF pIC50 (binned) (converted)
[5] = read-out: PKC-theta HTRF pIC50 (converted)
[6] = binned A to G, read-out: PKC-theta IL2 pIC50 (binned) (converted)
[7] = read-out: PKC-theta IL2 pIC50 (converted)

T1 sequence (Q04759 362-706): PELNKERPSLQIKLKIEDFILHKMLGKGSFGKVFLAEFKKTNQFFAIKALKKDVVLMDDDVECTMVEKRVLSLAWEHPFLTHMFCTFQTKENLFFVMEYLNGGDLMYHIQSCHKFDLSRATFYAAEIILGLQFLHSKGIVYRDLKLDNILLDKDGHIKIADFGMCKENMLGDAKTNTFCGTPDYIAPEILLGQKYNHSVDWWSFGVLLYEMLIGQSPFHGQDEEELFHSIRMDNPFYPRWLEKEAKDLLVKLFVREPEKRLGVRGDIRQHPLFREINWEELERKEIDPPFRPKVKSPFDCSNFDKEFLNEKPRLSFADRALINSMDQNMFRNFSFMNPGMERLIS
T2 sequence (Q05655 345-676): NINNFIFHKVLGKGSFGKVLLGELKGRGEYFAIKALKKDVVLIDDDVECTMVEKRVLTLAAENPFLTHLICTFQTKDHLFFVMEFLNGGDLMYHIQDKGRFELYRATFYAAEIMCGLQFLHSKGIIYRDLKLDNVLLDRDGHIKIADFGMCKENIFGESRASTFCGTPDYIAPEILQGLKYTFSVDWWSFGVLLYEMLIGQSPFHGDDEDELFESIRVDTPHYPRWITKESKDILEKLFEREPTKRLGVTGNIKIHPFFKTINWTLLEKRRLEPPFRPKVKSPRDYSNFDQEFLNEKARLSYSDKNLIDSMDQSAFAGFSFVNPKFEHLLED

Row | SMILES | IC50 [1, 4] | IC50 [1, 5] | IC50 [2, 6] | IC50 [2, 7] | PKC-theta/PKC-delta selectivity [3] | PKC-theta/PKC-delta selectivity (binned) [3]
1 | C[C@@H]1CN(c2cccc(-c3ccnc4c3C(C)(C)C(=O)N4)c2)CCN1 [Example 54] | 31.6 to 100 nM | 100 nM | > 1000 nM | 2000 nM | 3 | F (a ratio of between 1 and 5)
2 | CC[C@@H]1CNCCN1c1cc(Cl)cc(-c2ccnc3c2[C@](C)(O)C(=O)N3)n1 (single isomer, unassigned) [Example 139] | 0.316 to 1 nM | 0.794 nM | 1 to 3.16 nM | 2 nM | 1 | F (a ratio of between 1 and 5)
3 | CC1(O)C(=O)Nc2nccc(-c3cc(N4CCNCC4)cc(C(F)(F)F)c3)c21 (centres unmarked) [Example 56] | 10 to 31.6 nM | 20 nM | 316 to 1000 nM | 794 nM | 14 | D (a ratio of between 10 and 20)
4 | CC1(C)C(=O)Nc2nccc(-c3cccc(C4CCNCC4)c3)c21 [Example 45] | 100 to 316 nM | 200 nM | > 1000 nM | 3980 nM | 2 | F (a ratio of between 1 and 5)
5 | CC1C(=O)Nc2nccc(-c3cccc(N4CCNCC4)c3)c21 (centres unmarked) [Example 5] | 31.6 to 100 nM | 79.4 nM | 316 to 1000 nM | 794 nM | 4 | F (a ratio of between 1 and 5)
6 | C[C@@]1(O)C(=O)Nc2nccc(-c3cc(Cl)cc(N4CCNC(CC(F)(F)F)C4)n3)c21 (single isomer, unassigned) [Example 122] | 3.16 to 10 nM | 3.98 nM | 100 to 316 nM | 251 nM | 16 | D (a ratio of between 10 and 20)
7 | CC[C@@]1(C)C(=O)Nc2nccc(-c3cc(C(C)(F)F)cc(N4CCNC[C@H]4C)n3)c21 (single isomer, unassigned) [Example 202] | 3.16 to 10 nM | 3.98 nM | 31.6 to 100 nM | 50.1 nM | 22 | C (a ratio of between 20 and 30)
8 | C[C@@H]1CN(c2cc(Cl)cc(-c3ccnc4c3C(C)(O)C(=O)N4)n2)CCN1 (some centres unmarked) [Example 73] | 3.16 to 10 nM | 6.31 nM | 100 to 316 nM | 126 nM | 11 | D (a ratio of between 10 and 20)
9 | CC[C@@H]1CN(c2cc(C(F)(F)F)cc(-c3ccnc4c3C(C)(O)C(=O)N4)n2)CCN1 (some centres unmarked) [Example 72] | 10 to 31.6 nM | 25.1 nM | 100 to 316 nM | 316 nM | 12 | D (a ratio of between 10 and 20)
10 | CC1(C)C(=O)Nc2nccc(-c3cc(C(F)(F)F)cc(N4CCNC[C@H]4CO)n3)c21 [Example 161] | 1 to 3.16 nM | 2.51 nM | 31.6 to 100 nM | 50.1 nM | 12 | D (a ratio of between 10 and 20)
11 | C[C@@]1(O)C(=O)Nc2nccc(-c3cc(F)cc(N4CCNCC4)c3)c21 (single isomer, unassigned) [Example 63] | 316 to 1000 nM | 1000 nM | > 1000 nM | 10000 nM |  | G (a ratio of 0 to 1)
12 | CC1(C)C(=O)Nc2nccc(-c3cc(C#N)cc(N4CCNCC4)c3)c21 [Example 53] | 100 to 316 nM | 251 nM | > 1000 nM | 1580 nM | 3 | F (a ratio of between 1 and 5)
13 | CC1(C)C(=O)Nc2nccc(-c3cc(C(F)(F)F)cc(N4CCNC5(CC5)C4)n3)c21 [Example 84] | 3.16 to 10 nM | 7.94 nM | 316 to 1000 nM | 316 nM | 14 | D (a ratio of between 10 and 20)
14 | COC[C@@H]1CN(c2cc(C(F)(F)F)cc(-c3ccnc4c3C(C)(C)C(=O)N4)n2)CCN1 [Example 120] | 10 to 31.6 nM | 25.1 nM | 316 to 1000 nM | 501 nM | 15 | D (a ratio of between 10 and 20)
15 | C[C@H]1CNCCN1c1cc(C(F)(F)F)cc(-c2ccnc3c2[C@](C)(O)C(=O)N3)n1 (single isomer, unassigned) [Example 93] | 10 to 31.6 nM | 12.6 nM | 100 to 316 nM | 126 nM | 12 | D (a ratio of between 10 and 20)
